Holding throughout (type): cell-based
The test system of one experiment is Pseudomonas aeruginosa A. Kind of experiment: MIC in nutrient broth. From the text: (§1) The minimum inhibitory concentrations (MIC) of the
(§2) compound of Examples 2 and 4 found necessary to prevent
(§3) growth of various bacteria in nutrient broth were as […]

The next experiment deals with Proteus rettgeri WM 16. Kind of experiment: MIC in nutrient broth. The settings on record: Providencia rettgeri, WM16.
Text: as §1, §2, §3

Experiment [1] has as its system Serratia marcescens US 20. As to the kind of experiment: MIC in nutrient broth. To be noted: US20.
Text: as §1, §2, §3

Another experiment relates to Citrobacter freundii E 8. As to the kind of experiment: MIC in nutrient broth. The settings on record: E8.
Text: as §1, §2, §3

The test system of experiment [2] is Staphylococcus aureus Russell. Kind of experiment: MIC in nutrient broth.
Text: as §1, §2, §3

Experiment [3] concerns Klebsiella aerogenes A. Kind of experiment: MIC in nutrient broth.
Text: as §1, §2, §3

In the next experiment the test system is Proteus morganii I 580. Kind of experiment: MIC in nutrient broth. The settings on record: Morganella morganii, I580.
Text: as §1, §2, §3

In experiment [4] the test system is Salmonella typhimurium CT 10. As to the kind of experiment: MIC in nutrient broth. To be noted: Salmonella enterica.
Text: as §1, §2, §3

Experiment [5] deals with Streptococcus pyogenes CN 10. Kind of experiment: MIC in nutrient broth. The settings on record: CN10.
Text: as §1, §2, §3

Experiment [6] has as its system Streptococcus faecalis I. Kind of experiment: MIC in nutrient broth. The settings on record: Enterococcus faecalis.
Text: as §1, §2, §3

The next experiment relates to Proteus vulgaris W 091. Kind of experiment: MIC in nutrient broth. The settings on record: W091.
Text: as §1, §2, §3

The next experiment has as its system Proteus mirabilis 977. As to the kind of experiment: MIC in nutrient broth.
Text: as §1, §2, §3

Experiment [7] has as its system Staphylococcus aureus Oxford. Kind of experiment: MIC in nutrient broth.
Text: as §1, §2, §3

Experiment [8] relates to Escherichia coli JT 39 (R^+). As to the kind of experiment: MIC in nutrient broth.
Text: as §1, §2, §3

Another experiment relates to Bacillus subtilis A. Kind of experiment: MIC in nutrient broth.
Text: as §1, §2, §3

For the next experiment, the system named is Shigella sonnei MB 11967. As to the kind of experiment: MIC in nutrient broth. To be noted: MB11967.
Text: as §1, §2, §3

The test system of another experiment is Enterobacter cloacae N 1. Kind of experiment: MIC in nutrient broth. To be noted: N1.
Text: as §1, §2, §3

Experiment [9] concerns Streptococcus pneumoniae CN 33. Kind of experiment: MIC in nutrient broth. The settings on record: CN33.
Text: as §1, §2, §3

A further experiment has as its system Escherichia coli 0111. Kind of experiment: MIC in nutrient broth.
Text: as §1, §2, §3

A further experiment relates to Enterobacter cloacae N1. Kind of experiment: MIC on agar. From the text:
(§4) The Minimum Inhibitory concentrations (MIC) of the compound
(§5) of Example 6 found necessary to prevent growth of various

The subject of the next experiment is Proteus mirabilis C977. Kind of experiment: MIC on agar.
Text: as §4, §5

Experiment [10] concerns Pseudomonas aeruginosa NCTC 10662. Kind of experiment: MIC on agar. To be noted: NCTC10662.
Text: as §4, §5

The subject of experiment [11] is Pseudomonas aeruginosa Dalgleish. Kind of experiment: MIC on agar.
Text: as §4, §5

A further experiment deals with Proteus morganii. Kind of experiment: MIC on agar. To be noted: Morganella morganii.
Text: as §4, §5

A further experiment relates to Bacillus subtilis. As to the kind of experiment: MIC on agar.
Text: as §4, §5

Experiment [12] has as its system Staphylococcus aureus Russell. As to the kind of experiment: MIC on agar.
Text: as §4, §5

Experiment [13] deals with Klebsiella aerogenes A. Kind of experiment: MIC on agar.
Text: as §4, §5

Experiment [14] relates to Streptococcus faecalis I. As to the kind of experiment: MIC on agar. The settings on record: Enterococcus faecalis.
Text: as §4, §5

For another experiment, the system named is Escherichia coli JT425. Kind of experiment: MIC on agar.
Text: as §4, §5

A further experiment deals with Serratia marcescens US32. As to the kind of experiment: MIC on agar.
Text: as §4, §5

The test system of experiment [15] is Staphylococcus aureus Oxford. Kind of experiment: MIC on agar.
Text: as §4, §5

In a further experiment the test system is Escherichia coli JT4. As to the kind of experiment: MIC on agar.
Text: as §4, §5

Another experiment relates to Proteus rettgeri. Kind of experiment: MIC on agar. The settings on record: Providencia rettgeri.
Text: as §4, §5

Experiment [16] concerns Neisseria catarrhalis 1502. Kind of experiment: MIC on agar.
Text: as §4, §5

In experiment [17] the test system is Streptococcus pyogenes CN10. As to the kind of experiment: MIC on agar.
Text: as §4, §5

Where a name gives a salt, the structure may show the parent alone.

For orientation: MIC means the lowest concentration that inhibits growth of the organism. Regarding `CO/N=C(\C(=O)N[C@@H]1C(=O)N2C(C(=O)O)=C(Cc3ccc(C(=O)O)cc3)CS[C@H]12)c1csc(N)n1` [Example 2, (6R,7R)-3-(4-Carboxybenzyl)-7-[2,Z-methoxyimino-2-(2-aminothiazol-4-yl)-acetamido]ceph-3-em-4-carboxylic acid trifluoroacetic acid salt], the MIC in the experiment with Pseudomonas aeruginosa A is above 100 µg/mL; against Proteus rettgeri WM 16, 12.5 µg/mL; in experiment [1], 12.5 µg/mL; with Citrobacter freundii E 8, 25 µg/mL; in experiment [2] it was 12.5 µg/mL; against Klebsiella aerogenes A [3], 0.2 µg/mL. Besides, the MIC in the experiment with Proteus morganii I 580 is 1.6 µg/mL; in experiment [4], 0.4 µg/mL; in experiment [5] it was at most 0.1 µg/mL; against Streptococcus faecalis I [6], above 100 µg/mL; against Proteus vulgaris W 091 it was 12.5 µg/mL; with Proteus mirabilis 977, 0.8 µg/mL. Also, the MIC in experiment [7] was 12.5 µg/mL; in experiment [8] it was 6.2 µg/mL; against Bacillus subtilis A, 25 µg/mL; against Shigella sonnei MB 11967, 0.4 µg/mL; in the experiment on Enterobacter cloacae N 1, 3.1 µg/mL; in experiment [9], at most 0.1 µg/mL. Also, the MIC against Escherichia coli 0111 came to 6.2 µg/mL.
Regarding `CCO/N=C(\C(=O)N[C@@H]1C(=O)N2C(C(=O)O)=C(Cc3ccc(C(=O)O)cc3)CS[C@H]12)c1csc(N)n1` [Example 4, (6R,7R)-3-(4-Carboxybenzyl)-7-[2,Z-ethoxyimino-2-(2-aminothiazol-4-yl)-acetamido]-ceph-3-em-4-carboxylic acid trifluoroacetic acid salt], the MIC with Pseudomonas aeruginosa A was above 100 µg/mL; in the experiment with Proteus rettgeri WM 16, 100 µg/mL; in [1], 3.1 µg/mL; in the experiment with Citrobacter freundii E 8, 100 µg/mL; in [2] it was 6.2 µg/mL; against Klebsiella aerogenes A [3], 0.1 µg/mL. Also, the MIC is 100 µg/mL against Proteus morganii I 580; 0.8 µg/mL in [4]; above 100 µg/mL against Streptococcus faecalis I [6]; 3.1 µg/mL in the experiment with Proteus vulgaris W 091; 0.2 µg/mL in the experiment on Proteus mirabilis 977; 3.1 µg/mL in experiment [7]. Besides, the MIC amounted to 1.6 µg/mL in [8]; 12.5 µg/mL in the experiment with Bacillus subtilis A; 0.8 µg/mL against Shigella sonnei MB 11967; 50 µg/mL in the experiment on Enterobacter cloacae N 1; 6.2 µg/mL in experiment [9]; 3.1 µg/mL against Escherichia coli 0111.
As to `CC(C)(O/N=C(\C(=O)N[C@@H]1C(=O)N2C(C(=O)O)=C(Cc3ccc(C(=O)O)cc3)CS[C@H]12)c1csc(N)n1)C(=O)O` [Example 6, (6R,7R)-3-(4-Carboxybenzyl)-7-[2,Z-(2-carboxyprop-2-oxyimino)-2-(2-aminothiazol-4-yl)-acetamido]-ceph-3-em-4-carboxylic acid trifluoroacetic acid salt], the MIC in the experiment on Enterobacter cloacae N1 was 1 µg/mL; in the experiment on Proteus mirabilis C977, 0.05 µg/mL; in [10], 5 µg/mL; in experiment [11], 2.5 µg/mL; in the experiment on Proteus morganii it was 2.5 µg/mL; against Bacillus subtilis it was above 100 µg/mL. Moreover, the MIC is above 100 µg/mL in experiment [12]; 0.2 µg/mL in the experiment on Klebsiella aerogenes A [13]; above 100 µg/mL against Streptococcus faecalis I [14]; 25 µg/mL with Escherichia coli JT425; 2.5 µg/mL in the experiment on Serratia marcescens US32; 100 µg/mL in experiment [15]. Further, the MIC was 2.5 µg/mL with Escherichia coli JT4, 0.2 µg/mL with Proteus rettgeri, below 0.02 µg/mL in experiment [16] and 2.5 µg/mL in [17].

The record behind these values is patent US4460582A, “3-Carboxybenzyl cephems” (Beecham Group P.L.C., priority 1981, dated 1984).
